Experimental data from patent US20040152903A1, “6-chloro-3-pyridylmethylpropylamine derivatives, preparation process thereof and bactericides” (priority 2004, published 2004).

What was measured:
[1] = test system: Rhynchosporium secalis; test: Antifungal activity test (PDA plate, hypha extension inhibition); type: cell-based; conditions: 100 ppm in PDA culture medium
Procedure: (Antifungal Activity Test against Various Pathogenic Fungi) For each of the compounds I-1 to 27 of the present invention and the comparative compounds (a) to (d), (m-1) and (m-3), 20 mg was weighed and dissolved in 2 ml of dimethylsulfoxide, and a double dilution row in 10 steps was prepared by further using dimethylsulfoxide. A 0.6 ml portion of these solutions was each added to 60 ml of a PDA culture medium (potato-dextrose-agar culture medium) at about 60° C., they were well mixed in a 100 ml Erlenmeyer flask, the solution was poured into a schale and was solidified, the plate culture media containing the compounds according to the present invention with final concentrations of 100, 50.0, 25.0, 12.5, 6.3, 3.2, 1.6, 0.8, 0.4 and 0.2 mg/l were prepared. On the other hand, the specimen bacteria cultured on the plate culture media beforehand was punched by a 4 mm diameter cork borer, and was inoculated on the plate culture media containing the aforementioned chemicals. After the inoculation, the bacteria were cultured at the optimum growth temperature of each bacterium for 1 to 7 days (for this optimum growth temperature, LIST OF CULTURES 1996 Microorganisms 10th edition published by Fermentation Research Institute (Foundation) can be referred to.), and the growth of the bacteria was measured by the diameter of a colony. […]

[2] = test system: wheat powdery mildew; test: Permeable mobility fungicidal effect test in leaf section of wheat powdery mildew; type: in vivo; conditions: length of non-contracted area relative to compound (m-2); 200 mg/l, 0.5 μl applied to wheat leaf (Abukumawase)
Procedure: (Permeable Mobility Fungicidal Effect Test in Leaf Section of Wheat Powdery Mildew) In the test example 4, permeable mobility fungicidal effect test was performed on the leaf section of wheat powdery mildew with regard to the compounds I-1 to 27 according to the present invention and the comparative compounds (a) to (d), and (m-1) to (m-3) with the method described later. <Test Method> The compound in the form of a wettable powder obtained by Formulation 2 or the like was diluted and suspended with water to a predetermined concentration (200 mg/l), and 0.5 μl of the suspension was applied to a 2 to 3 cm leaf portion from the root of the three leaves of the 4th to 4.5th leaf period wheat (variety: Abukumawase) cultured by using a square plastic pot (size: 6.4 cm×6.4 cm). After these wheat leaves were subject to still standing in a glass house (temperature: 20 to 24° C., relative humidity: 20 to 70 RH) for one day, the spores of wheat powdery mildew were inoculated over the leaves by sprinkling the same with a brush from an infected leaf, a disease was contracted in the same glass house. The length of a non-contracted area generated from the applied portion to the direction of the leaf top was measured, and a relative mobility to the compound (m-2) was calculated with the following calculation […] by using the comparative compound (m-2) as a standard compound. Relative mobility=(Length of non-contracted area in each chemical section (cm)/Length of non-contracted area of compound (m-2) (cm)) (Equation 4)

[3] = test system: Pyricularia oryzae; type: cell-based; conditions: 12.5 ppm in PDA culture medium
[4] = test system: Septoria tritici; test: Antifungal activity test (PDA plate, hypha extension inhibition); type: cell-based; conditions: 100 ppm in PDA culture medium
Procedure: (Antifungal Activity Test against Various Pathogenic Fungi) For each of the compounds I-1 to 27 of the present invention and the comparative compounds (a) to (d), (m-1) and (m-3), 20 mg was weighed and dissolved in 2 ml of dimethylsulfoxide, and a double dilution row in 10 steps was prepared by further using dimethylsulfoxide. A 0.6 ml portion of these solutions was each added to 60 ml of a PDA culture medium (potato-dextrose-agar culture medium) at about 60° C., they were well mixed in a 100 ml Erlenmeyer flask, the solution was poured into a schale and was solidified, the plate culture media containing the compounds according to the present invention with final concentrations of 100, 50.0, 25.0, 12.5, 6.3, 3.2, 1.6, 0.8, 0.4 and 0.2 mg/l were prepared. On the other hand, the specimen bacteria cultured on the plate culture media beforehand was punched by a 4 mm diameter cork borer, and was inoculated on the plate culture media containing the aforementioned chemicals. After the inoculation, the bacteria were cultured at the optimum growth temperature of each bacterium for 1 to 7 days (for this optimum growth temperature, LIST OF CULTURES 1996 Microorganisms 10th edition published by Fermentation Research Institute (Foundation) can be referred to.), and the growth of the bacteria was measured by the diameter of a colony. […] R=100(dc−dt)/dc (Equation 3) [wherein each symbol is shown as follows: R=Hypha extension inhibition rate (%), dc=Diameter of colony on no-treated plate, dt=Diameter of colony on chemical-treated plate.] The results obtained above was evaluated in 5 steps in accordance with the following examination scale. <Growth Inhibition> 5: Hypha extension inhibition rate of 90% or more 4: Hypha extension inhibition rate of from 70% to less than 90% 3: […] 2: […] In addition, the abbreviations in Table 10 are as follows: S.t: Septoria tritici

SMILES	Growth Inhibition R.s (100) [1]	Relative Mobility [2]	Growth Inhibition P.o (12.5) [3]	Growth Inhibition S.t (100) [4]
CC(Cc1ccc(C(F)(F)F)c(F)c1F)CN(C)Cc1ccc(Cl)nc1 (centres unmarked) [Compound I-10]	4 (Hypha extension inhibition rate of from 70% to less than 90%)	3	4 (Hypha extension inhibition rate of from 70% to less than 90%)	4 (Hypha extension inhibition rate of from 70% to less than 90%)
CC(Cc1ccc2c(c1)OC(F)(F)O2)CN(C)Cc1ccc(Cl)nc1 (centres unmarked) [Compound I-24]	5 (Hypha extension inhibition rate of 90% or more)	6	4 (Hypha extension inhibition rate of from 70% to less than 90%)	4 (Hypha extension inhibition rate of from 70% to less than 90%)
